In experiment [1] the target is T1, hJNK1 (Homo sapiens, UniProt P45983).
T1 construct: His; purchased Upstate 14-327
The experiment can be described thus: hJNK1 | IC50. The source says: (§1) Table printed on a drawing sheet, Fig. 4
Head of the field: hJNK1 | IC50
(§2) The patent's description of the figure: FIG. 4: Table illustrating the inhibitory efficacy of several JNK inhibitors according to the present invention, which are fusion proteins of a JNK inhibitory (poly-)peptide sequence and a transporter sequence. Given are the IC50 values in the nM range, the respective standard error of the mean (SEM) and the number of experiments performed (n).
(§3) First copying reader's note: The sheet prints no unit for IC50 (the description says nM range); decimal commas are used, except for three IC50 cells printed with a point (3820.81, 5340.33, 8130.86).
Where the first naming reader finds the target: head: hJNK1 | IC50

Experiment [2] concerns the target hJNK2 (Homo sapiens, UniProt P45984). The experiment can be described thus: hJNK2 | IC50.
Excerpt: as §1
Head of the field: hJNK2 | IC50
as §2, §3
Where the first naming reader finds the target: head: hJNK2 | IC50

For experiment [3], the target named is hJNK3 (Homo sapiens, UniProt P53779). Description: hJNK3 | IC50.
Sequence of hJNK3 (P53779 whole entry, looked up): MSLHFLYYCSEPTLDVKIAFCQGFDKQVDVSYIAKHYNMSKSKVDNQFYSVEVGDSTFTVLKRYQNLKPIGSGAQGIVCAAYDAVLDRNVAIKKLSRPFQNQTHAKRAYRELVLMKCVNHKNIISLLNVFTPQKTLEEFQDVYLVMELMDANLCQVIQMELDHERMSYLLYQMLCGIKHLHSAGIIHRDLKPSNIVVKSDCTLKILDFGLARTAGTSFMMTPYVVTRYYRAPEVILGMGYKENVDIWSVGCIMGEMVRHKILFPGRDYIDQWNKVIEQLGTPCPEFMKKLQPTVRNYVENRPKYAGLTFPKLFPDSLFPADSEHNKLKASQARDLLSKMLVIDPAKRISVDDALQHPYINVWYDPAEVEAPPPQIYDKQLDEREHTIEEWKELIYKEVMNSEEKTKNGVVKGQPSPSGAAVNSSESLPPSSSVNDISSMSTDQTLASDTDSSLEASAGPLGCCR
Excerpt: as §1
Head of the field: hJNK3 | IC50
as §2, §3
Where the first naming reader finds the target: head: hJNK3 | IC50

Where two headings read alike, the source gives them in different places. Square brackets hold non-standard residues; d marks the D form. Peptide text beside a SMILES is read from it.

T1 sequence (P45983 whole entry, looked up): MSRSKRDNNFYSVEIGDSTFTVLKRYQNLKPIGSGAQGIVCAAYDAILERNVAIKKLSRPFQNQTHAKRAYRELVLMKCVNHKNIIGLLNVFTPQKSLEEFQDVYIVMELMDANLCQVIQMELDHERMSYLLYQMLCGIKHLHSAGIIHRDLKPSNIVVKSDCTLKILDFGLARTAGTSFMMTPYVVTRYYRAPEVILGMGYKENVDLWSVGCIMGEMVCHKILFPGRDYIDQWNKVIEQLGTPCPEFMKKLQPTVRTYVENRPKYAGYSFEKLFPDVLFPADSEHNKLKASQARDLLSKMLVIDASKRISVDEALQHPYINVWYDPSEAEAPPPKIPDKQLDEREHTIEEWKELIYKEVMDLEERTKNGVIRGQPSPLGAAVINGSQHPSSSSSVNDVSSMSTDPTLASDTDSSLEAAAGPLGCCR
Sequence of hJNK2 (P45984 whole entry, looked up): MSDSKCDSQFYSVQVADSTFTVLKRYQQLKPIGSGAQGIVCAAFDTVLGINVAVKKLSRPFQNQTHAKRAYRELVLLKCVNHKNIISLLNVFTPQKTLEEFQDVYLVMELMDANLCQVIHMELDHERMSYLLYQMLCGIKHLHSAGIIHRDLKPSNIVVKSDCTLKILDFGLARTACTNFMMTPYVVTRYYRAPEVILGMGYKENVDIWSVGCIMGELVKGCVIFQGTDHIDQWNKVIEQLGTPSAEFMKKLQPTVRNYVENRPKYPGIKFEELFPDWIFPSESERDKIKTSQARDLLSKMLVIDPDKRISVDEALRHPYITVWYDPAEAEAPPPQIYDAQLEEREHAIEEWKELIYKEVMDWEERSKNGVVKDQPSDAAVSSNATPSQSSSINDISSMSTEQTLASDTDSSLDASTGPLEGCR

For the molecule `CC(C)C[C@H](NC(=O)[C@H](CC(N)=O)NC(=O)[C@H](CC(C)C)NC(=O)[C@@H](NC(=O)[C@@H](C)NC(=O)[C@@H]1CCCN1C(=O)[C@H](CCCNC(=N)N)NC(=O)[C@@H](CCCNC(=N)N)NC(=O)[C@H](CCCNC(=N)N)NC(=O)[C@H](CCC(N)=O)NC(=O)[C@@H](CCCNC(=N)N)NC(=O)[C@H](CCCNC(=N)N)NC(=O)[C@H](CCCCN)NC(=O)[C@H](CCCCN)NC(=O)[C@H](N)CCCNC(=N)N)[C@@H](C)O)C(=O)N[C@H](Cc1ccccc1)C(N)=O` [SEQ ID NO: 183, rKKRrQRrRPaTLNLf] (H-[dR]KKR[dR]QR[dR]RP[dA]TLNL[dF]-NH2), the IC50 in experiment [1] (read-out: hJNK1 | IC50) turned out to be 2590 nM; in experiment [2] (read-out: hJNK2 | IC50) it was 427 nM; in experiment [3] (read-out: hJNK3 | IC50), 199 nM.

In the case of `CC(C)C[C@H](NC(=O)[C@H](CC(N)=O)NC(=O)[C@H](CC(C)C)NC(=O)[C@@H](NC(=O)[C@@H](C)NC(=O)[C@@H]1CCCN1C(=O)[C@H](CCCNC(=N)N)NC(=O)[C@H](CCCCN)NC(=O)[C@@H](CCCNC(=N)N)NC(=O)[C@H](CCCNC(=N)N)NC(=O)[C@H](CCC(N)=O)NC(=O)[C@@H](CCCNC(=N)N)NC(=O)[C@H](CCCNC(=N)N)NC(=O)[C@H](CCCCN)NC(=O)[C@H](CCCCN)NC(=O)[C@H](N)CCCNC(=N)N)[C@@H](C)O)C(=O)N[C@H](Cc1ccccc1)C(N)=O` [SEQ ID NO: 184, rKKRrQRrKRPaTLNLf] (H-[dR]KKR[dR]QR[dR]KRP[dA]TLNL[dF]-NH2), the IC50 in experiment [1] (read-out: hJNK1 | IC50) is 2430 nM; in experiment [2] (read-out: hJNK2 | IC50), 206 nM; in experiment [3] (read-out: hJNK3 | IC50) it was 129 nM.

On to `CC(C)C[C@H](NC(=O)[C@H](CC(N)=O)NC(=O)[C@H](CC(C)C)NC(=O)[C@@H](NC(=O)[C@@H](CO)NC(=O)[C@@H]1CCCN1C(=O)[C@H](CCCNC(=N)N)NC(=O)[C@@H](CCCCN)NC(=O)[C@@H]1CCCN1C(=O)[C@H](CCCNC(=N)N)NC(=O)[C@@H](CCCNC(=N)N)NC(=O)[C@H](CCCNC(=N)N)NC(=O)[C@H](CCCNC(=N)N)NC(=O)[C@H](CCC(N)=O)NC(=O)[C@@H](CCCNC(=N)N)NC(=O)[C@H](CCCNC(=N)N)NC(=O)[C@H](CCCCN)NC(=O)[C@H](CCCCN)NC(=O)[C@H](N)CCCNC(=N)N)[C@@H](C)O)C(=O)N[C@H](Cc1ccccc1)C(N)=O` [SEQ ID NO: 185, rKKRrQRRrRPkRPsTLNLf] (H-[dR]KKR[dR]QRR[dR]RP[dK]RP[dS]TLNL[dF]-NH2), for which the IC50 in experiment [1] (read-out: hJNK1 | IC50) was 766 nM; in experiment [2] (read-out: hJNK2 | IC50), 72.1 nM; in experiment [3] (read-out: hJNK3 | IC50), 35.5 nM.

As for `CC(C)C[C@H](NC(=O)[C@H](CC(N)=O)NC(=O)[C@H](CC(C)C)NC(=O)[C@@H](NC(=O)[C@@H](CCC(N)=O)NC(=O)[C@@H]1CCCN1C(=O)[C@H](CCCNC(=N)N)NC(=O)[C@@H](CCCCN)NC(=O)[C@@H]1CCCN1C(=O)[C@H](CCCNC(=N)N)NC(=O)[C@@H](CCCNC(=N)N)NC(=O)[C@H](CCCNC(=N)N)NC(=O)[C@H](CCCNC(=N)N)NC(=O)[C@H](CCC(N)=O)NC(=O)[C@@H](CCCNC(=N)N)NC(=O)[C@H](CCCNC(=N)N)NC(=O)[C@H](CCCCN)NC(=O)[C@H](CCCCN)NC(=O)[C@H](N)CCCNC(=N)N)[C@@H](C)O)C(=O)N[C@H](Cc1ccccc1)C(N)=O` [SEQ ID NO: 186, rKKRrQRRrRPkRPqTLNLf] (H-[dR]KKR[dR]QRR[dR]RP[dK]RP[dQ]TLNL[dF]-NH2), the figures for the concentration for half-maximal inhibition (IC50) in experiment [1] (read-out: hJNK1 | IC50), in experiment [2] (read-out: hJNK2 | IC50) and in experiment [3] (read-out: hJNK3 | IC50) were 1020 nM, 52.6 nM and 44.2 nM, respectively.

Turning to `CC(C)C[C@H](NC(=O)[C@H](CC(N)=O)NC(=O)[C@H](CC(C)C)NC(=O)[C@@H](NC(=O)[C@@H](CCCCN)NC(=O)[C@@H]1CCCN1C(=O)[C@H](CCCNC(=N)N)NC(=O)[C@@H](CCCCN)NC(=O)[C@@H]1CCCN1C(=O)[C@H](CCCNC(=N)N)NC(=O)[C@@H](CCCNC(=N)N)NC(=O)[C@H](CCCNC(=N)N)NC(=O)[C@H](CCCNC(=N)N)NC(=O)[C@H](CCC(N)=O)NC(=O)[C@@H](CCCNC(=N)N)NC(=O)[C@H](CCCNC(=N)N)NC(=O)[C@H](CCCCN)NC(=O)[C@H](CCCCN)NC(=O)[C@H](N)CCCNC(=N)N)[C@@H](C)O)C(=O)N[C@H](Cc1ccccc1)C(N)=O` [SEQ ID NO: 187, rKKRrQRRrRPkRPkTLNLf] (H-[dR]KKR[dR]QRR[dR]RP[dK]RP[dK]TLNL[dF]-NH2), the IC50 came to 594 nM in experiment [1] (read-out: hJNK1 | IC50), 37.9 nM in experiment [2] (read-out: hJNK2 | IC50) and 25.4 nM in experiment [3] (read-out: hJNK3 | IC50).

On to `CC(C)C[C@H](NC(=O)[C@H](C)NC(=O)[C@H](CCCCN)NC(=O)[C@H](CCCNC(=N)N)NC(=O)[C@H](CCCCN)NC(=O)CNC(=O)[C@@H](CCCNC(=N)N)NC(=O)[C@H](CCCNC(=N)N)NC(=O)[C@H](CCCNC(=N)N)NC(=O)[C@H](CCC(N)=O)NC(=O)[C@@H](CCCNC(=N)N)NC(=O)[C@H](CCCNC(=N)N)NC(=O)[C@H](CCCCN)NC(=O)[C@H](CCCCN)NC(=O)[C@H](N)CCCNC(=N)N)C(=O)N[C@@H](CCCCN)C(=O)N[C@@H](CC(C)C)C(=O)N[C@H](Cc1ccccc1)C(N)=O` [SEQ ID NO: 188] (H-[dR]KKR[dR]QRR[dR]GKRKALKL[dF]-NH2), for which the values for the IC50 in experiment [1] (read-out: hJNK1 | IC50), in experiment [2] (read-out: hJNK2 | IC50) and in experiment [3] (read-out: hJNK3 | IC50) were 1420 nM, 98.1 nM and 36.1 nM, respectively.

Take `CC(C)C[C@H](NC(=O)[C@H](C)NC(=O)[C@H](CCCCN)NC(=O)[C@H](CCCNC(=N)N)NC(=O)[C@H](CCCCN)NC(=O)CNC(=O)[C@@H](CCCNC(=N)N)NC(=O)[C@H](CCCNC(=N)N)NC(=O)[C@H](CCCNC(=N)N)NC(=O)[C@H](CCC(N)=O)NC(=O)[C@@H](CCCNC(=N)N)NC(=O)[C@H](CCCNC(=N)N)NC(=O)[C@H](CCCCN)NC(=O)[C@H](CCCCN)NC(=O)[C@H](N)CCCNC(=N)N)C(=O)N[C@H](CCCNC(=N)N)C(=O)N[C@@H](CC(C)C)C(=O)N[C@H](Cc1ccccc1)C(N)=O` [SEQ ID NO: 189, rKKRrQRRrGKRKALrLf] (H-[dR]KKR[dR]QRR[dR]GKRKAL[dR]L[dF]-NH2): the half-inhibitory concentration (IC50) in experiment [1] amounted to 22300 nM; in experiment [2], 176 nM; in experiment [3] it was 128 nM.

On to `CC(C)C[C@H](NC(=O)[C@H](C)NC(=O)[C@H](CCCCN)NC(=O)[C@H](CCCNC(=N)N)NC(=O)[C@@H](CCCNC(=N)N)NC(=O)[C@H](CCCNC(=N)N)NC(=O)[C@H](CCCNC(=N)N)NC(=O)[C@H](CCC(N)=O)NC(=O)[C@@H](CCCNC(=N)N)NC(=O)[C@H](CCCNC(=N)N)NC(=O)[C@H](CCCCN)NC(=O)[C@H](CCCCN)NC(=O)[C@H](N)CCCNC(=N)N)C(=O)N[C@H](CCCNC(=N)N)C(=O)N[C@@H](CC(C)C)C(=O)N[C@H](Cc1ccccc1)C(N)=O` [SEQ ID NO: 190, rKKRrQRRrRKALrLf] (H-[dR]KKR[dR]QRR[dR]RKAL[dR]L[dF]-NH2), for which the IC50 in experiment [1] (read-out: hJNK1 | IC50) amounted to 8970 nM; in experiment [2] (read-out: hJNK2 | IC50), 148 nM; in experiment [3] (read-out: hJNK3 | IC50), 159 nM.

Take `CC(C)C[C@H](NC(=O)[C@H](CC(N)=O)NC(=O)[C@H](CC(C)C)NC(=O)[C@@H](NC(=O)[C@@H](NC(=O)[C@@H]1CCCN1C(=O)[C@H](CCCNC(=N)N)NC(=O)[C@H](CCCCN)NC(=O)[C@@H]1CCCN1C(=O)[C@@H]1CCCN1C(=O)[C@H](CCCNC(=N)N)NC(=O)[C@H](CCCNC(=N)N)NC(=O)[C@H](CCCNC(=N)N)NC(=O)[C@H](CCC(N)=O)NC(=O)[C@H](CCCNC(=N)N)NC(=O)[C@H](CCCNC(=N)N)NC(=O)[C@H](CCCCN)NC(=O)[C@H](CCCCN)NC(=O)[C@H](CCCNC(=N)N)NC(=O)CN)[C@@H](C)O)[C@@H](C)O)C(=O)N[C@@H](Cc1ccccc1)C(=O)N1CCC[C@H]1C(=O)N[C@@H](CCC(N)=O)C(=O)N[C@H](C(=O)N1CCC[C@H]1C(=O)N[C@@H](CCCNC(=N)N)C(=O)N[C@@H](CO)C(=O)N[C@@H](CCC(N)=O)C(=O)N[C@@H](CC(=O)O)C(N)=O)C(C)C` [SEQ ID NO: 194] (H-GRKKRRQRRRPPKRPTTLNLFPQVPRSQD-NH2): the IC50 in experiment [1] amounted to 14 nM; in experiment [2] it was 12.7 nM; in experiment [3], 2.59 nM.

A word on the IC50: it is the concentration that inhibits the measured activity by half.

Source of the values: patent US11331364B2, “Use for JNK inhibitor molecules for treatment of various diseases” (Xigen Inflammation Ltd., priority 2014, dated 2022).
